Tested on: E. coli strain MBX1335
Settings: for average OD-600 reached: E. coli MBX1335, 10 g/L in medium, cultures allowed to continue to grow; for inhibition of growth rate: E. coli MBX1335, minimal glucose medium, 2, 5 and 10 g/L, triplicate, FIG. 2
Protocol: MBX1335 was grown overnight in LB medium supplemented with 25 μg/mL chloramphenicol. […] The base medium in these 3-mL cultures contained, per liter: 5 g glucose; 1 mmol MgSO4; 10 mg thiamine; 25.5 mmol Na2HPO4; 33.3 mmol K2HPO4; 27.2 mmol KH2PO4; 2.78 mg FeSO4.7H2O; 1.98 mg MnCl2.4H2O; 2.81 mg CoSO4.7H2O; 0.17 mg CuCl2.2H2O; 1.67 mg CaCl2.2H2O; 0.29 mg ZnSO4.7H2O; 0.1 g casein hydrolysate; and 25 μg chloramphenicol.

Row | Compound | average OD-600 reached | inhibition of growth rate
1 | CCC(=O)[O-].[Na+] [propionate, sodium propionate] | 5.0 | propionate inhibits the rate of growth substantially more than 1-propanol
2 | 1-propanol | 3.8 | propionate inhibits the rate of growth substantially more than 1-propanol

— patent US8071355B2, “Polyhydroxyalkanoate production by coenzyme A-dependent aldehyde dehydrogenase pathways” (Metabolix, Inc., priority 2002, dated 2011)
